Patent publication US20230072421A1, “TARGETED RADIOPHARMACEUTICALS FOR THE DIAGNOSIS AND TREATMENT OF PROSTATE CANCER” (Bayer AS, priority 2019, published 2023)

Assays:
[1] = target: T1, PSMA-expressing LNCaP cells (Homo sapiens, UniProt Q04609); assay: Binding competition assay against 3H-PSMA-617 on LNCaP cells; conditions: LNCaP cells, 10 nM 3H-PSMA-617, 2 h at 37° C., triplicates
T1 construct: PSMA-expressing LNCaP cells; endogenous in cells; host or cells: LNCaP
In short: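 Compounds added to LNCaP cells in growth medium, 2 h at 37 °C, 5% CO2. After two ice-cold PBS washes, cells lysed in 0.3 M NaOH and bound radioactivity measured by liquid scintillation counting.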

[2] = test system: VCap, C4-2, 22Rv1 and LnCap cells; assay: Cell proliferation assay, summary statements over several cell lines; assay type: cell-based; conditions: 227Th-labelled compounds bearing the HOPO chelator Example A
Protocol: (§1) Inhibition of cell proliferation of Thorium-227 labeled PMSA SMOL ligands was tested different prostate cancer cell lines, namely 22Rv1, VCaP, C4-2 (all from ATCC, Manassas, Va., USA) and LNCaP (DMSZ, Braunschweig). Cells were seeded using the following conditions in 384 well plates (Corning) in 30 μl of growth media at 4000 cells/well for VCaP cells and 1000 cells/well for 22Rv1, C4-2 and LNCaP cells.
Cells were cultivated an incubator at 37° C. and 5% C02 over night. […] In sister plates cell viability at treatment start (d=0) was determined using CellTiter-Glo® assay (CTG, Promega, Madison, Wis., USA), by adding 30 μl per well CTG solution, incubation for 10 min and reading of Luminescence in a PheraStarFSX instrument (BMG Labtech). After a 5-day exposure in the presenced of test compounds, cell viability of treated or untreated control cells was determined again using CellTiter-Glo® assay (Promega, Madison, Wis., USA). […] The DRC software is a Biobook Spreadsheet that was developed by Bayer AG and Bayer Business Services on the IDBS E-Workbook Suite platform (IDBS: ID Business Solutions Ltd., Guildford, UK).

VCaP cells = assay: Cell proliferation assay (CellTiter-Glo, 5-day exposure), VCaP; assay type: cell-based; conditions: 4000 cells/well, Th-227 labelled at 375 kBq/nmol, mean of 1 to 6 experiments
In short: (§2)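 Prostate cancer cells (VCaP 4000/well; 22Rv1, C4-2, LNCaP 1000/well), Th-227-labelled PSMA ligands, 5-day exposure; viability by CTG at start and end.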

C4-2 cells = assay: Cell proliferation assay (CellTiter-Glo, 5-day exposure), C4-2; assay type: cell-based; conditions: C4-2, 1000 cells/well, Th-227 labelled at 375 kBq/nmol, mean of 1 to 6 experiments
In short: as §2

22Rv1 cells = assay: Cell proliferation assay (CellTiter-Glo, 5-day exposure), 22Rv1; assay type: cell-based; conditions: 22Rv1, 1000 cells/well, Th-227 labelled at 375 kBq/nmol, mean of 1 to 6 experiments
In short: as §2

LNCaP cells = assay: Cell proliferation assay (CellTiter-Glo, 5-day exposure), LNCaP; assay type: cell-based, human; conditions: LNCaP, 1000 cells/well; Th-227 labelled at 375 kBq/nmol; 5-day exposure; mean of 1 to 6 experiments
Protocol: as §1
Cells were cultivated an incubator at 37° C. and 5% C02 over night. On the following days cells were treated in triplicates with serial dilutions of PSMA-SMOLs labeled with Th-227 at a specific activity of 375 kBq/nmol (RCP>70% as assessed by iTLC analysis; compounds where RCP was between 50-70% in individual experiments are marked with an * in the table) using a D300e Digital Dispenser (Tecan). In sister plates cell viability at treatment start (d=0) was determined using CellTiter-Glo® assay (CTG, Promega, Madison, Wis., USA), by adding 30 μl per well CTG solution, incubation for 10 min and reading of Luminescence in a PheraStarFSX instrument (BMG Labtech). After a 5-day exposure in the presenced of test compounds, cell viability of treated or untreated control cells was determined again using CellTiter-Glo® assay (Promega, Madison, Wis., USA). […] The DRC software is a Biobook Spreadsheet that was developed by Bayer AG and Bayer Business Services on the IDBS E-Workbook Suite platform (IDBS: ID Business Solutions Ltd., Guildford, UK).

[3] = target: T1, PSMA-expressing LNCaP cells; assay: Internalization assay (membrane bound and internalized Th-227); assay type: cell-based; conditions: 10 nM radiolabeled compound, Th-227 at 375 kBq/nmol, triplicates; for Internalized in LNCaP fmol/10^6 cells 30 min / Membrane bound in LNCaP fmol/10^6 cells 30 min: 30 min incubation; for Internalized in LNCaP fmol/10^6 cells 2 h / Membrane bound in LNCaP fmol/10^6 cells 2 h: 2 h incubation
Protocol: For internalization assays 24 well plates (#3526, Corning) were coated with 200 μl Poly-L-Lysine (0.1 mg/ml, #3438-100-01, Fa. Cultrex) per well for 2 h at 37° C. […] Cells were incubated at 37° C. and 5% CO2 over night. On the following day 400 μl of the media were removed and a total of 200 μl growth medium added supplemented with PSMA-SMOLs labeled with Th-227 at 375 kBq/nmol in triplicates. Radiochemical purity of the labeling was analyzed by instant thin layer chromatography and found to be above 70% for all compounds used. The final concentration of radiolabeled SMOLs was in the test wells was 10 nM. Cells were incubated for 30 min or 2 h. After the incubation time supernatants were taken off and cells washed with PBS. Thereafter cells were washed twice with 0.2 ml 50 mM Glycine-HCl buffer (#55097, Sigma Aldrich) and once with PBS and the washing solutions combined in counting vials (#TK75-018, Fa. Corning) and subjected to gamma counting (1470 Wizard automatic gamma counter, Wallac). The resulting counts were attributed to membrane bound radioactivity. Cells were then lysed with 500 μl 0.3N NaOH (#181691.1211, Fa. PanReac AppliChem ITW Reagents) followed by another wash with 500 μl PBS. The NaOH lysate as well as the final wash were combined in vials and subjected to gamma counting as described above. Measured radioactivity was attributed to internalized fraction. Results were calculated as fmol of Th-227 per/10^cells in the membrane bound and internalized fractions from triplicate values.

[4] = test system: LNCaP human prostate cancer cells; assay: LNCaP xenograft efficacy study (T/C tumor area); assay type: in vivo, SCID mice
In short: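 SCID mice with testosterone pellet bearing s.c. flank LNCaP xenografts (5×10^6 cells in Matrigel) were treated i.v. with a defined radioactive dose once tumors reached 35-50 mm^2 (n=10/group). Tumor area (caliper, longest diameter × perpendicular) measured 2-3× weekly; T/C ratio calculated from tumor areas when vehicle group closed.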

[5] = Example IV, day 36 after start of therapy, once 1 MBq/kg
[6] = Example V, day 27 after start of therapy, once 750 kBq/kg

T1 sequence (Q04609 whole entry): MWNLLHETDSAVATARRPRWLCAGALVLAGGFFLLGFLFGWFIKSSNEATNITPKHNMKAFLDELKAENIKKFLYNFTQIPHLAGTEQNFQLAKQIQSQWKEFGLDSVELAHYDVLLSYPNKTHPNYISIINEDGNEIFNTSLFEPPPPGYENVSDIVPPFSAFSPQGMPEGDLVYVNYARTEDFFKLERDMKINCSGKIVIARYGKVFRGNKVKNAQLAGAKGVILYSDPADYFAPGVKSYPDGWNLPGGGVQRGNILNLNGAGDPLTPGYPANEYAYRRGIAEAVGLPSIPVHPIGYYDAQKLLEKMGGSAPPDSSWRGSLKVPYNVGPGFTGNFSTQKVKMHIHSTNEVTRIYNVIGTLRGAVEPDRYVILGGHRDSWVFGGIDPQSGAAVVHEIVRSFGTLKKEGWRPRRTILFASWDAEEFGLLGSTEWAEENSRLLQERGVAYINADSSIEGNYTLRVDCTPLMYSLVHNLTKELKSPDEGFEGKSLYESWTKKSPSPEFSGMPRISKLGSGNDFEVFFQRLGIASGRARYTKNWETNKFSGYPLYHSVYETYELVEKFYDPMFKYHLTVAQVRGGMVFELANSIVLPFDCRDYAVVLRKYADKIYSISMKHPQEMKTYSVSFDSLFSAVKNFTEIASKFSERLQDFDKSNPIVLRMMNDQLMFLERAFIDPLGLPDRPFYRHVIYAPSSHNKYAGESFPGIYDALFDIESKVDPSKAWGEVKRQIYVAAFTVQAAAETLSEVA

Cc1cc(C(=O)NCCN(CCCN(CCNC(=O)c2cc(C)n(CC(=O)NC[C@H]3CC[C@H](C(=O)N[C@@H](Cc4cnc5ccccc5c4)C(=O)NCCCC[C@H](NC(=O)N[C@@H](CCC(=O)O)C(=O)O)C(=O)O)CC3)c(=O)c2O)CCNC(=O)c2cc(C)n(CC(=O)NC[C@H]3CC[C@H](C(=O)N[C@@H](Cc4cnc5ccccc5c4)C(=O)NCCCC[C@H](NC(=O)N[C@@H](CCC(=O)O)C(=O)O)C(=O)O)CC3)c(=O)c2O)CCNC(=O)c2cc(C)n(CC(=O)NC[C@H]3CC[C@H](C(=O)N[C@@H](Cc4cnc5ccccc5c4)C(=O)NCCCC[C@H](NC(=O)N[C@@H](CCC(=O)O)C(=O)O)C(=O)O)CC3)c(=O)c2O)c(O)c(=O)n1CC(=O)O [Example 22-C trimer]
% remaining 3H-PSMA-617 @ 10 nM (mean) ([1]; competing non-radiolabeled compound 10 nM): 33%
% remaining 3H-PSMA-617 @ 100 nM (mean) ([1]; competing non-radiolabeled compound 100 nM): 5%
antiproliferative activity on VCap, C4-2, 22Rv1 and LnCap cells (in words) [2]: high antiproliferative activity

Cc1cc2c(c(=O)n1CC(=O)O)[O][227Th]13[O]c4c(cc(C)n(CC(=O)O)c4=O)C(=O)NCCN(CCCN(CCNC2=O)CCNC(=O)c2cc(C)n(CC(=O)NCc4ccc(C(=O)N[C@@H](Cc5ccc6ccccc6n5)C(=O)NCCCC[C@H](NC(=O)N[C@@H](CCC(=O)O)C(=O)O)C(=O)O)nc4)c(=O)c2[O]1)CCNC(=O)c1cc(C)n(CC(=O)NCc2ccc(C(=O)N[C@@H](Cc4ccc5ccccc5n4)C(=O)NCCCC[C@H](NC(=O)N[C@@H](CCC(=O)O)C(=O)O)C(=O)O)nc2)c(=O)c1[O]3 [34-C dimer-227Th]
Proliferation assay on cancer cell lines by TTCs Default Pivot #3 IC50 [kBq/mL] VCap 4000cells 375kBq/nmol (mean) (VCaP cells): 1.25 kBq/mL
Proliferation assay on cancer cell lines by TTCs Default Pivot #3 IC50 [kBq/mL] C4-2 1000cells 375kBq/nmol (mean) (C4-2 cells): 0.46 kBq/mL
Proliferation assay on cancer cell lines by TTCs Default Pivot #3 IC50 [kBq/mL] 22Rv1 1000cells 375kBq/nmol (mean) (22Rv1 cells): 1.36 kBq/mL
Proliferation assay on cancer cell lines by TTCs Default Pivot #3 IC50 [kBq/mL] LnCap 1000cells 375kBq/nmol (mean) (LNCaP cells): 0.02 kBq/mL
Internalized in LNCaP fmol/10^6 cells 30 min [3]: 100 fmol/10^6 cells
Membrane bound in LNCaP fmol/10^6 cells 30 min [3]: 79 fmol/10^6 cells
Internalized in LNCaP fmol/10^6 cells 2 h [3]: 299 fmol/10^6 cells
Membrane bound in LNCaP fmol/10^6 cells 2 h [3]: 185 fmol/10^6 cells
T/Carea [4, 5]: 0.46
T/Carea [4, 6]: 0.38

Cc1cc(C(=O)NCCN(CCCN(CCNC(=O)c2cc(C)n(CC(=O)NCc3ccc(C(=O)N[C@@H](Cc4ccc5ccccc5n4)C(=O)NCCCC[C@H](NC(=O)N[C@@H](CCC(=O)O)C(=O)O)C(=O)O)nc3)c(=O)c2[O-])CCNC(=O)c2cc(C)n(CC(=O)NCc3ccc(C(=O)N[C@@H](Cc4ccc5ccccc5n4)C(=O)NCCCC[C@H](NC(=O)N[C@@H](CCC(=O)O)C(=O)O)C(=O)O)nc3)c(=O)c2[O-])CCNC(=O)c2cc(C)n(CC(=O)NCc3ccc(C(=O)N[C@@H](Cc4ccc5ccccc5n4)C(=O)NCCCC[C@H](NC(=O)N[C@@H](CCC(=O)O)C(=O)O)C(=O)O)nc3)c(=O)c2[O-])c([O-])c(=O)n1CC(=O)O.[227Th+4] [34-C trimer 227Th]
Proliferation assay on cancer cell lines by TTCs Default Pivot #3 IC50 [kBq/mL] VCap 4000cells 375kBq/nmol (mean) (VCaP cells): 1.1 kBq/mL
Proliferation assay on cancer cell lines by TTCs Default Pivot #3 IC50 [kBq/mL] C4-2 1000cells 375kBq/nmol (mean) (C4-2 cells): 0.28 kBq/mL
Proliferation assay on cancer cell lines by TTCs Default Pivot #3 IC50 [kBq/mL] 22Rv1 1000cells 375kBq/nmol (mean) (22Rv1 cells): 1.25 kBq/mL
Proliferation assay on cancer cell lines by TTCs Default Pivot #3 IC50 [kBq/mL] LnCap 1000cells 375kBq/nmol (mean) (LNCaP cells): 0.03 kBq/mL
Internalized in LNCaP fmol/10^6 cells 30 min [3]: 68 fmol/10^6 cells
Membrane bound in LNCaP fmol/10^6 cells 30 min [3]: 49 fmol/10^6 cells
Internalized in LNCaP fmol/10^6 cells 2 h [3]: 162 fmol/10^6 cells
Membrane bound in LNCaP fmol/10^6 cells 2 h [3]: 93 fmol/10^6 cells
T/Carea [4, 5]: 0.41
T/Carea [4, 6]: 0.56
